Measurements taken from article PMC7286788 (ACS infectious diseases, 2019).
pIC50: −log10 of the molar value. Where two headings read alike, the source gives them in different places. Starred links: 1 amine or outer side, 2 acyl side, 3 side chain; linkers in the order of their positions; H or OH if unused. Positions of bridges follow the written chain, without caps; N, C: chain ends. Non-standard residues stand in square brackets, D forms with d. Residues, ends and D or L forms follow the SMILES beside them. ξ: configuration not given here. *: point of attachment. X3 = O=C(C(N[*:1])c1ccc(OC2OC(CO)C(O)C(O)C2OC2OC(CO)C(O)C(O)C2O)cc1)[*:2]; ξPhg(3-Cl-4-OH) = NC(C(=O)O)c1ccc(O)c(Cl)c1; X2 = NC(=O)C(O[*:3])C(N[*:1])C(=O)[*:2]; Hpg = N[CH](C(=O)O)c1ccc(O)cc1; Orn = NCCC[CH](N)C(=O)O; X1 = CC(C)CC=CC=CC(=O)*

Columns and labels:
MraY/MurX = MraY/MurX (Mycolicibacterium smegmatis, UniProt A0R019); test: Substrate tolerance of MurX/MraY, P-60 of M. smegmatis; assay type: biochemical, Mycobacterium smegmatis; conditions: P-60 of wild-type M. smegmatis (ATCC607)
HyMurG [1] = target: T1, HyMurG (Hydrogenivirga sp. 128-5-R1-1, UniProt A8US35); test: UV-Vis-based MurG assay; assay type: biochemical; conditions: for Inhibition of MurG function / lipid II formation: 50–100 μM; for inhibition at 10 µM / inhibition at 50 µM / inhibition at 100 µM: read-out: HthermMurG inhibition (%); for pIC50: read-out: IC50 against HyMurG via UV-Vis spectrometry, dose-response curves
MsmegMurG [2] = target: T2, MsmegMurG (Mycolicibacterium smegmatis, UniProt A0R016); test: biochemical; parameters: species or system Mycobacterium smegmatis; conditions: for inhibition at 10 µM / inhibition at 50 µM / inhibition at 100 µM: read-out: (MsmegMurG) inhibition (%)
MsmegMurG [3] = target: T2, MsmegMurG; test: biochemical; parameters: species or system Mycobacterium smegmatis
MsmegMraY = MsmegMraY (Mycolicibacterium smegmatis, UniProt A0R019); test: biochemical; assay type: biochemical, Mycobacterium smegmatis
in vitro = conditions: African green monkey
M. smegmatis (ATCC607) = test: MIC determination, resazurin, M. smegmatis; assay type: cell-based, Mycobacterium smegmatis; conditions: 7H9 with 0.5% tween 80, 3 days at 37 °C
M. tuberculosis (H37Rv) = test: MIC determination, M. tuberculosis; assay type: cell-based, Mycobacterium tuberculosis; conditions: 7H9 containing OADC; 14 days
HyMurG [4] = target: T1, HyMurG; test: HPLC-based MurG assay, dose-response, HyMurG; assay type: biochemical; conditions: read-out: IC50 HyMurG; HPLC-based method; average of two-three experiments
[5] = test system: M. smegmatis (ATCC607) and M. tuberculosis (H37Rv); test: Antimycobacterial activity, text summary for both species; assay type: cell-based, Mycobacterium spp.; conditions: 50 μg/mL
MurG = target: T3, MurG (Mycolicibacterium smegmatis, UniProt A0R016); test: MurG kinetic parameters and mode of inhibition, enzyme source not stated; assay type: biochemical
T3 sequence (A0R016 1-385): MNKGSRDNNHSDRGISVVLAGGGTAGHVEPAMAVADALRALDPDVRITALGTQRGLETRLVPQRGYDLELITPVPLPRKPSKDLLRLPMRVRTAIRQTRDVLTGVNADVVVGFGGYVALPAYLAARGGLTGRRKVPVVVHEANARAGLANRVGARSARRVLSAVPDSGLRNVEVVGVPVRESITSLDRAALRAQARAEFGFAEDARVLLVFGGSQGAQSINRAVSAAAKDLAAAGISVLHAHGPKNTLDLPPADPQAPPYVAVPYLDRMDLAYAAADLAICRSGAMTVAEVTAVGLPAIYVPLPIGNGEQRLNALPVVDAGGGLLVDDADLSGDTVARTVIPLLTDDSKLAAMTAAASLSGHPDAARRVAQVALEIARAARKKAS

[6] = Cytotoxicity against Vero cells; conditions: African green monkey
[7] = read-out: IC50 MsmegMurG, HPLC-based method, average of two-three experiments
[8] = read-out: IC50 MsmegMraY, HPLC-based method, average of two-three experiments

T1 sequence (A8US35 1-350): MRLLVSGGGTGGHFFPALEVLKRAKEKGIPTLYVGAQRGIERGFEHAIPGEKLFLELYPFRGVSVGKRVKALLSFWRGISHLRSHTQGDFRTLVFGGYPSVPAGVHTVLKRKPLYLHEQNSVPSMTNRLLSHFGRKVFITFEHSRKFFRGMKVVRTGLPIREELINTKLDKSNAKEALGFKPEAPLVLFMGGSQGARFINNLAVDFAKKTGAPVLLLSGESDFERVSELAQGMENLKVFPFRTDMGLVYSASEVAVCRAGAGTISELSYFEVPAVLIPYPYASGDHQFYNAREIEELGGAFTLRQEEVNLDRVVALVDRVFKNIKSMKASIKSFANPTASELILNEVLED
Sequence of MsmegMraY (A0R019 whole entry): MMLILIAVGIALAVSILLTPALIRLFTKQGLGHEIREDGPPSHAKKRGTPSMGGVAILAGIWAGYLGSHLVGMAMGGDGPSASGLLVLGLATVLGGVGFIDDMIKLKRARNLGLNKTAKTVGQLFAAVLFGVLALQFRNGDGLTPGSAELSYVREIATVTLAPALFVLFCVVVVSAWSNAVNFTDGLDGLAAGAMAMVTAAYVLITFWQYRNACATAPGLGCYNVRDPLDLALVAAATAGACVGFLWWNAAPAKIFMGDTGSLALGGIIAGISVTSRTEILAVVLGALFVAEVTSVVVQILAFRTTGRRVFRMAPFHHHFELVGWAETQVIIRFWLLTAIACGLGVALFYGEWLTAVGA
Sequence of MraY/MurX (A0R019 whole entry): as above

| Structure (SMILES) | Inhibition of MurG function / lipid II formation (HyMurG [1]) | inhibition at 10 µM (HyMurG [1]) | inhibition at 50 µM (HyMurG [1]) | inhibition at 100 µM (HyMurG [1]) | inhibition at 10 µM (MsmegMurG [2]) | inhibition at 50 µM (MsmegMurG [2]) | inhibition at 100 µM (MsmegMurG [2]) | pIC50 (MsmegMurG [3]) | pIC50 (MsmegMraY) | pIC50 (HyMurG [4]) | further results |
| --- | --- | --- | --- | --- | --- | --- | --- | --- | --- | --- | --- |
| C/C(=C/COP(=O)(O)O)CCCC(C)CCCC(C)CCCC(C)C (stereo not shown) [(2Z)-phytyl phosphate] |  |  |  |  |  |  |  |  |  |  | Formation of lipid I-N^ε-derivatives (MraY/MurX): did not provide the corresponding lipid I derivatives |
| CO[C@H]1[C@@H](O)[C@H](n2ccc(=O)[nH]c2=O)O[C@@H]1[C@@H](O[C@H]1OC(C(=O)N[C@H]2CCCCNC2=O)=C[C@H](O)[C@@H]1O)C(N)=O [Capuramycin, capuramycin] | did not inhibit | 0% | 0% | 0% | 0% | 0% | 0% | < 4.00 | 6.89 |  |  |
| CC[C@@H](CO)NCCN[C@@H](CC)CO [Ethambutol] |  |  |  |  |  |  |  |  |  |  | IC50 (in vitro): > 100 µg/mL |
| NNC(=O)c1ccncc1 [INH] |  |  |  |  |  |  |  |  |  |  | M. smegmatis (ATCC607) MIC (M. smegmatis (ATCC607)): 0.78 µg/mL; M. tuberculosis (H37Rv) MIC (M. tuberculosis (H37Rv)): 0.16 µg/mL; Vero cell cytotoxicity IC50 (Vero cell): >100 µg/mL |
| C=C(C/C=C(\C)CCC=C(C)C)CCC(C)(C)/C=C/CC/C(C)=C\CO[C@H](COP(=O)(O)O[C@H]1O[C@H](C(N)=O)[C@@](C)(O)[C@H](OC(N)=O)[C@H]1O[C@@H]1O[C@H](CO[C@@H]2O[C@H](CO)[C@@H](O)[C@H](O)[C@H]2O)[C@@H](O[C@@H]2O[C@H](C)[C@@H](O[C@@H]3O[C@H](C(=O)NC4=C(O)CCC4=O)[C@H](O)[C@H](O)[C@H]3O)[C@H](O)[C@H]2NC(C)=O)[C@H](O)[C@H]1NC(C)=O)C(=O)O [Moenomycin A, moenomycin A] | did not inhibit | 0% | 0% | 12% | 0% | 0% | 15% | < 4.00 | < 4.00 |  |  |
| C[C@@H]([C@H](N)C(=O)N[C@H](C(=O)O)[C@H]1O[C@@H](n2ccc(=O)[nH]c2=O)[C@H](O)[C@@H]1O)[C@H](O)c1ccc(O)cn1 [Nikkomycin Z, nikkomycin Z] |  | 33% | 50% | 95% | 35% | 45% | 93% | 5.02 | < 4.00 | 5.06 | pIC50 (HyMurG [1]): 5.06; pIC50 (MsmegMurG [2]): 5.02; Growth inhibition of M. smegmatis and M. tuberculosis [5]: did not inhibit growth; Mode of MurG inhibition (MurG): competitive inhibitory activity; IC50 (in vitro): > 100 µg/mL |
| CO[C@H]1[C@@H](OC)[C@H](n2ccc(=O)[nH]c2=O)O[C@@H]1[C@@H](O[C@H]1OC(C(=O)N[C@H]2CCCCNC2=O)=C[C@H](O)[C@@H]1O)C(N)=O [O-Methylcapuramycin, O-methylcapuramycin] | did not inhibit |  |  |  |  |  |  |  |  | < 4.00 | pIC50 (MsmegMurG [3]; [7]): < 4.00; pIC50 (MsmegMraY; [8]): < 4.00 |
| NC(=O)OC[C@H](O)[C@@H](O)[C@H](N)C(=O)N[C@H](C(=O)O)[C@H]1O[C@@H](n2cc(C(=O)O)c(=O)[nH]c2=O)[C@H](O)[C@@H]1O [Polyoxin D, polyoxin D] |  |  |  |  |  |  |  |  |  | 4.29 | pIC50 (MsmegMurG [3]; [7]): 4.26; pIC50 (MsmegMraY; [8]): < 4.00; M. smegmatis (ATCC607) MIC (M. smegmatis (ATCC607)): >50.0 µg/mL; M. tuberculosis (H37Rv) MIC (M. tuberculosis (H37Rv)): >50.0 µg/mL; Growth inhibition of M. smegmatis and M. tuberculosis [5]: did not inhibit growth; Vero cell cytotoxicity IC50 (Vero cell): >100 µg/mL |
| CC(C)CC=CC=CC(=O)NC(CC(N)=O)C(=O)NC1C(=O)NC(c2ccc(O)cc2)C(=O)NC(CCCN)C(=O)NC(C(C)O)C(=O)NC(c2ccc(O)cc2)C(=O)NC(c2ccc(O)cc2)C(=O)NC(C(C)O)C(=O)NC(Cc2ccccc2)C(=O)NC(CCCN)C(=O)NC(c2ccc(OC3OC(CO)C(O)C(O)C3OC3OC(CO)C(O)C(O)C3O)cc2)C(=O)NC(C(C)O)C(=O)NC(c2ccc(O)cc2)C(=O)NCC(=O)NC(CC(C)C)C(=O)NC(C)C(=O)NC(c2ccc(O)c(Cl)c2)C(=O)OC1C(N)=O (stereo not shown) [Ramoplanin A2, ramoplanin A2] (X1-N[X2][Hpg][Orn]T[Hpg][Hpg]TF[Orn][X3]T[Hpg]GLA[ξPhg(3-Cl-4-OH)]; ester 2-C; configuration not given here) |  |  |  |  | 0% | 100% | 100% |  | < 4.00 | 4.65 | pIC50 (HyMurG [1]): 4.65; IC50 [6]: > 100 µg/mL |
